Assay: Inhibition of Tamiflu-resistant Influenza A virus (A/Yokohama/67/2006 (H1N1)) sialidase

| Compound | IC50 [nM] |
| --- | --- |
| CO[C@@H]([C@@H]1OC(C(=O)O)=C[C@H](NC(=N)N)[C@H]1NC(C)=O)[C@H](O)CO [LANINAMIVIR] | 5.62 |
| CC(=O)N[C@H]1[C@H]([C@H](O)[C@H](O)CO)OC(C(=O)O)=C[C@@H]1NC(=N)N [ZANAMIVIR] | 3.05 |

Source: ChEMBL document CHEMBL1136912, “Synthesis and in vivo influenza virus-inhibitory effect of ester prodrug of 4-guanidino-7-O-methyl-Neu5Ac2en” (Bioorg Med Chem Lett, 2009)
